Reference: ChEMBL document CHEMBL1127077, “Trisubstituted pyridine leukotriene B4 receptor antagonists: synthesis and structure-activity relationships” (J Med Chem, 1993)

Assays:
[1] = target: Leukotriene B4 receptor 1 (Homo sapiens, UniProt Q15722); assay: Binding affinity of [3H]LTB4 to receptors on intact human polymorphonuclear leukocytes
U-937 = assay: Antagonistic activity to inhibit the calcium mobilization response in human U-937 cells; format: functional, cell-based

Leukotriene B4 receptor 1, sequence (Q15722 whole entry): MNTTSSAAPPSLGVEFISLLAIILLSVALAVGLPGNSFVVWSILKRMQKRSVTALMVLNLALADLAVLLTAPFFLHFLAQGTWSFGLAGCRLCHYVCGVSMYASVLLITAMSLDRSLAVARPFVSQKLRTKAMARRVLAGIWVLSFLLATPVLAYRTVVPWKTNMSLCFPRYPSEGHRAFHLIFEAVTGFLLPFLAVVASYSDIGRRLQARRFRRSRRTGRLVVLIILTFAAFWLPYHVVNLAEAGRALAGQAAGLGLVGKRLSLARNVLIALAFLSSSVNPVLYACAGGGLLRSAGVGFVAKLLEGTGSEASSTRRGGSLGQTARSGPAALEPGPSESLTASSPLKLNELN

SMILES	Ki [1]	IC50 (U-937)
COc1ccc(CCCCCCCCOc2ccc(COc3cccc(C(=O)O)c3)[n+]([O-])c2/C=C/C(=O)O)cc1	150 nM	890 nM
COc1ccc(CCCCCCCCOc2ccc(C[S+]([O-])c3cccc(CS(=O)(=O)C(F)(F)F)c3)nc2/C=C/C(=O)O)cc1 (configuration not stated)	225 nM	550 nM
CCCCCCCCCCCCOc1ccc(C[S+]([O-])c2ccc(C(=O)O)cc2)nc1/C=C/C(=O)O (configuration not stated)	252 nM	1300 nM
COc1ccc(CCCCCCCCOc2ccc(CSc3cccc(OC)c3)nc2/C=C/C(=O)O)cc1	192 nM	290 nM
CCCCCCCCCCCCOc1ccc(COc2cccc(C(=O)O)c2)nc1/C=C/C(=O)O	1130 nM	580 nM
COc1ccc(CCCCCCCCOc2ccc(CSc3cccc(N(C)C)c3)nc2/C=C/C(=O)O)cc1	789 nM	460 nM
COc1ccc(CCCCCCCCOc2ccc(CSc3cccc(NS(=O)(=O)c4ccccc4)c3)nc2/C=C/C(=O)O)cc1	609 nM	240 nM
CCCCCCCCCCCCOc1ccc(COc2cccc(C(=O)O)c2)[n+]([O-])c1/C=C/C(=O)O	338 nM	1010 nM
COc1ccc(CCCCCCCCOc2ccc(C[S+]([O-])c3cccc(OC)c3)nc2/C=C/C(=O)O)cc1 (configuration not stated)	232 nM	300 nM
COc1ccc(CCCCCCOc2ccc(CC(O)c3cccc(C(=O)O)c3)nc2/C=C/C(=O)O)cc1 (configuration not stated)	165 nM	4000 nM
COc1ccc(CCCCCCCCOc2ccc(CSc3cccc(NS(=O)(=O)C(F)(F)F)c3)nc2/C=C/C(=O)O)cc1	284 nM	340 nM
CCCCCCCCCCOc1ccc(CC(O)c2cccc(C(=O)O)c2)nc1/C=C/C(=O)O (configuration not stated)	–	3300 nM
COc1ccc(CCCCCCCCOc2ccc(C[S+]([O-])c3cccc(N(C)C)c3)nc2/C=C/C(=O)O)cc1 (configuration not stated)	245 nM	820 nM
CCCCCCCCCCCCOc1ccc(CS(=O)(=O)c2cccc(C(=O)O)c2)nc1/C=C/C(=O)O	148 nM	1060 nM
CCCCCCCCCCOc1ccc(CC(O)c2cccc(C(=O)O)c2)nc1CCC(=O)O (configuration not stated)	429 nM	3400 nM
COc1ccc(CCCCCCCCOc2ccc(C[S+]([O-])c3cccc(C(=O)O)c3)nc2/C=C/C(=O)O)cc1 (configuration not stated)	151 nM	1100 nM
CCCCCCCCCCCCOc1ccc(C[S+]([O-])c2ccccc2C(=O)O)nc1/C=C/C(=O)O (configuration not stated)	478 nM	1500 nM

More lines, now with the values ahead:

Ki [1]	IC50 (U-937)	SMILES
129 nM	930 nM	CCCCCCCCCCCCOc1ccc(C[S+]([O-])c2cccc(C(=O)O)c2)nc1/C=C/C(=O)O (configuration not stated)
11 nM	160 nM	Nc1cccc([S+]([O-])Cc2ccc(OCCCCCCCCc3ccccc3)c(/C=C/C(=O)O)n2)c1 (configuration not stated)
43 nM	78 nM	Nc1cccc(SCc2ccc(OCCCCCCCCc3ccc(C(F)(F)F)cc3)c(/C=C/C(=O)O)n2)c1
36 nM	60 nM	Nc1cccc(SCc2ccc(OCCCCCCCCc3ccccc3)c(/C=C/C(=O)O)n2)c1
4.7 nM	74 nM	COc1ccc(CCCCCCCCOc2ccc(C[S+]([O-])c3cccc(N)c3)nc2/C=C/C(=O)O)cc1 (configuration not stated)
1 nM	–	CCCCCCCCC(O)/C=C/c1cccc(CC(O)c2cccc(C(=O)O)c2)n1 (configuration not stated)
14 nM	54 nM	Nc1cccc([S+]([O-])Cc2ccc(OCCCCCCCCc3ccc(C(F)(F)F)cc3)c(/C=C/C(=O)O)n2)c1 (configuration not stated)
37 nM	280 nM	COc1ccc(CCCCCCCCOc2ccc(C[S+]([O-])c3ccccc3)nc2/C=C/C(=O)O)cc1 (configuration not stated)
34 nM	54 nM	COc1ccc(CCCCCCCCOc2ccc(CSc3cccc(N)c3)nc2/C=C/C(=O)O)cc1
36 nM	150 nM	COc1ccc(CCCCCCCCOc2ccc(CS(=O)(=O)c3cccc(N)c3)nc2/C=C/C(=O)O)cc1
80 nM	390 nM	COc1ccc(CCCCCCCCOc2ccc(CSc3cccc(C(=O)O)c3)nc2/C=C/C(=O)O)cc1
74 nM	110 nM	COc1ccc(CCCCCCCCOc2ccc(CSc3ccccc3)nc2/C=C/C(=O)O)cc1
147 nM	150 nM	COc1ccc(CCCCCCCCOc2ccc(C[S+]([O-])c3cccc(NS(=O)(=O)c4ccccc4)c3)nc2/C=C/C(=O)O)cc1 (configuration not stated)
12 nM	110 nM	Nc1cccc([S+]([O-])Cc2ccc(OCCCCCCCCc3ccc(F)cc3)c(/C=C/C(=O)O)n2)c1 (configuration not stated)
72 nM	480 nM	COc1ccc(CCCCCCCCOc2ccc(CSc3cccc(NC(=O)C(=O)O)c3)nc2/C=C/C(=O)O)cc1
